Assays:
[1] = biological target: P-glycoprotein (MDR1, ABCB1) (Homo sapiens, UniProt P08183); assay: P-gp transport profiling (substrate); format: in vitro ADME; conditions: human, Caco-2 cell layers; estimated
Description: (§1) Passive Permeability through CaCo-2 Cell Layers and P-gp Transport Profiling: […]

[2] = biological target: T1, P-glycoprotein (a.k.a. MDR1, ABCB1) (Homo sapiens, UniProt P08183); assay: P-gp transport profiling (substrate); format: in vitro ADME; conditions: in vitro
Description: as §1

CYP3A4 = biological target: T2, CYP3A4 (Homo sapiens, UniProt P08684); assay: CYP3A4-catalysed metabolism of BIBW 2992 in vivo (previous studies)
T2 construct: host or cells: healthy volunteers (in vivo)
T2 sequence (P08684 whole entry): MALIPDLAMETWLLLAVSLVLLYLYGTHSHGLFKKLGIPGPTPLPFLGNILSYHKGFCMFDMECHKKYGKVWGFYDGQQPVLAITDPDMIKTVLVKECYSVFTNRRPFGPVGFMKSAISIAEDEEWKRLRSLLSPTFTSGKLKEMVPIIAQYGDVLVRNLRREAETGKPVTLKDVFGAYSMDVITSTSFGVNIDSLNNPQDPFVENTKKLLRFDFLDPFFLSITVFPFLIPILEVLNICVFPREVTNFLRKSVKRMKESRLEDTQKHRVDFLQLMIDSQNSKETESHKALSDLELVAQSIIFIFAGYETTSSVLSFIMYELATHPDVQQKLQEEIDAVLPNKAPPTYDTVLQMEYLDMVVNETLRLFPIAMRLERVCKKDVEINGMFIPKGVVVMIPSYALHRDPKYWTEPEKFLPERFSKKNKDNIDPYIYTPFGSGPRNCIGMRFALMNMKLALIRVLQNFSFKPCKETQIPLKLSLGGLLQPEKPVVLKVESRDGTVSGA

[3] = biological target: T1, P-glycoprotein (a.k.a. MDR1, ABCB1); assay: Inhibition of P-gp by BIBW 2992; format: in vitro ADME; conditions: mean of two independent experiments; read-out: estimated Ki as inhibitor of P-gp
Description: as §1

CaCo-2 cell layers = assay: Passive permeability through CaCo-2 cell layers; format: in vitro ADME
Description: as §1

[4] = Phase I two-way crossover trial: effect of ritonavir on pharmacokinetics of BIBW 2992
[5] = in vivo; cited from earlier work

T1 sequence (P08183 whole entry): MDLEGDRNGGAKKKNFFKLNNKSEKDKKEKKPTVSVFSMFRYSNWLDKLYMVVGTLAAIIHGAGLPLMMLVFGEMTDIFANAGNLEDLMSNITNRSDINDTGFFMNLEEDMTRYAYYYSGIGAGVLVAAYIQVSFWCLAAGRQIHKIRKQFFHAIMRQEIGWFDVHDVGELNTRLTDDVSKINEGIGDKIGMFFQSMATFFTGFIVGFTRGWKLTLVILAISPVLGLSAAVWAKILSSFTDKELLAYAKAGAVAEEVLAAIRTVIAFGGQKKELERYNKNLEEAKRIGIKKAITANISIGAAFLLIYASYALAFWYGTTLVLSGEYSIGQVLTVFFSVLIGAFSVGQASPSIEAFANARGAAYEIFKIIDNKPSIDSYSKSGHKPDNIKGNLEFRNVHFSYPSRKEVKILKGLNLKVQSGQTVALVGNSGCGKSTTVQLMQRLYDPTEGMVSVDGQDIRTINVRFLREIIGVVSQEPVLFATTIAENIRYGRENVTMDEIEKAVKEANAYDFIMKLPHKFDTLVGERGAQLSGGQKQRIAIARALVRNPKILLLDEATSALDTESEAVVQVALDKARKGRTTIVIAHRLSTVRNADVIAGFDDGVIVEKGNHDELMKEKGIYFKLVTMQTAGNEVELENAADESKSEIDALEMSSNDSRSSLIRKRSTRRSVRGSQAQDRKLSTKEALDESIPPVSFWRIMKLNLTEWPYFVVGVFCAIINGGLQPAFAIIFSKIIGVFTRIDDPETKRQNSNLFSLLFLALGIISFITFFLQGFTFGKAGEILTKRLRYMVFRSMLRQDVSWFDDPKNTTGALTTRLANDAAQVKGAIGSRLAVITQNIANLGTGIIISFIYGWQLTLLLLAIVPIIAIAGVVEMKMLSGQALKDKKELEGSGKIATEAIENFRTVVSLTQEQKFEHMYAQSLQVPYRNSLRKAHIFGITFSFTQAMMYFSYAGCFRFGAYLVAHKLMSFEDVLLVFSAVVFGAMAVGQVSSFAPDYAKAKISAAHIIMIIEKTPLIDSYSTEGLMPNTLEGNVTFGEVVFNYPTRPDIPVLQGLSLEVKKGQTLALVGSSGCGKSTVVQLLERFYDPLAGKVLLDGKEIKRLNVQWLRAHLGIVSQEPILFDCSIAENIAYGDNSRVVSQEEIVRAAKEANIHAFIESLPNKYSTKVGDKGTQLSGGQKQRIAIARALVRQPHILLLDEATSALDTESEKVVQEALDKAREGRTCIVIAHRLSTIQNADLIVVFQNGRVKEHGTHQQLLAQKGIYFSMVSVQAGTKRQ
Sequence of P-glycoprotein (MDR1, ABCB1) (P08183 whole entry): as above

- Km [1]: 10 to 30 µM
- P-gp substrate status [2]: substrate of P-gp
- CYP3A4-dependent N-demethylation (CYP3A4; healthy volunteers): too low to be quantitatively detected
- role of CYP3A4 enzyme-catalysed metabolic reactions for metabolism (CYP3A4; in vivo): subordinate role
- Ki [3]: 3.4 µM
- passive permeability (CaCo-2 cell layers): high
- AUC0-∞ increase compared with BIBW 2992 given alone ([4]; BIBW 2992 20 mg oral with ritonavir 200 mg twice daily, healthy male volunteers, 90% CI 133.7%, 162.9%): 47.6%
- AUC0-tz increase compared with BIBW 2992 given alone ([4]; BIBW 2992 20 mg oral with ritonavir 200 mg twice daily, healthy male volunteers, 90% CI 134.5%, 165.1%): 49.0%
- Tmax ([4]; male, human, in vivo, oral, 20 mg): 4 h
- terminal half-life, effect of ritonavir cotreatment ([4]; with ritonavir 200 mg bid vs alone): unchanged
Compound: CN(C)C/C=C/C(=O)Nc1cc2c(Nc3ccc(F)c(Cl)c3)ncnc2cc1O[C@H]1CCOC1.O=C(O)/C=C\C(=O)O.O=C(O)/C=C\C(=O)O [BIBW 2992, 4-[(3-chloro-4-fluorophenyl)amino]-6-{[4-(N,N-dimethylamino)-1-oxo-2-buten-1-yl]amino}-7-((S)-tetrahydrofuran-3-yloxy)-quinazoline]
- dose dependence of exposure [5]: more than dose-proportional increase in exposure

Source: patent publication US20130289056A1, “METHODS OF ADMINISTERING AN EGFR INHIBITOR” (Boehringer Ingelheim International GmbH, priority 2010, published 2013)
